Where “and” joins values, the source holds several entries; their conditions need not be identical. Equal entries are not always repeated. Entries after “also recorded” stand apart in the source; their conditions may differ.
Experiments:
[1] = Stability of As-LHP complexes in Milli-Q water by XAS; assay type: physicochemical; conditions: 37° C.; for stability in Milli-Q water: XANES
Method: The stability of As-LHP complexes was studied by XAS. Samples were prepared by dissolving HyAs(LHP), MeAs(LHP) or PhAs(LHP) (1.5 mM) in Milli-Q water which was maintained at 37° C. Immediately prior to analysis the arsenic-peptide solution (600 μL) was mixed with ethylene glycol (300 μL) to prevent crystallisation during rapid freezing. The resultant solution (1 mM final As concentration) was transferred by syringe to the sample holder which was sealed with Kapton tape. The sample was then rapidly submerged in liquid nitrogen and transferred to the liquid helium cryostat where it was analysed at 10° K.
Arsenic K-edge XAS data were collected at the Australian National Beamline Facility (ANBF, beamline 20B) KEK, Tsukuba, Japan with a beam energy of 2.5 GeV, and beam current of 300-400 mA. A Si[111] channel-cut monochromator was detuned by 50% to reject harmonics. All spectra were recorded in fluorescence mode at ˜10° K (maintained with a closed-cycle He Cryolndustries REF-1577-D22 cryostat) using a 36-element Ge-array detector (Eurisys/Canberra Industries) and a 1-mm vertical slit width. XAS spectra were obtained at the zero time point and then at a later time point, 4 h or 14 h. The spectra from the two time points were processed and analysed using EXAFS PAK.

K562 cells [2] = tested on: K562 cells
[3] = Stability of As-LHP complexes in cell medium (IMDM) by XAS; assay type: physicochemical; conditions: 37° C., 0 h vs 24 h; for stability in IMDM: XANES
Method: The stability of the two most promising As-LHP complexes was also studied in cell medium (IMDM). Samples were prepared by dissolving MeAs(LHP) or PhAs(LHP) (1.5 mM) in IMDM which was maintained at 37° C. The same protocol was followed as that for the Milli-Q water stability studies. XAS spectra were obtained at the zero time point and then at 24 h. As with the Milli-Q water samples, the spectra from the two time points were processed, fitted and quantified using EXAFSPAK.

Kasumi-1 cells [4] = test: Cellular As uptake, Kasumi-1 cells; assay type: cell-based, human; conditions: 1.5 μM As
Method: (§1) FIG. 24 is a graphical summary of the cellular As concentrations associated with the specified cell lines following 24-h treatment (1.5 μM As). The results are represented as the mean and standard deviation of triplicate samples.
(§2) FIG. 24 summarises the cellular As concentrations associated with the different cell types following 24-h treatment with the various As compounds (1.5 μM As). The leukemia cell lines, K562, HL-60, Kasumi-1 and KARPAS 45, are depicted in red (lighter of the filled in blocks), and the non-leukemia cell types are depicted in black (darkest shading), with the cancerous adherent cells, HepG2, in the diagonal stripes, and the normal cells, hPBMC, in solid black.

HepG2 cells [5] = assay type: cell-based, human
hPBMC = test: Cellular As uptake, hPBMC; assay type: cell-based, human; conditions: 24-h treatment, 1.5 μM As
Method: as §1, §2

K562 cells [6] = test: Fate of PhAs(LHP) in K562 cells (micrographs, microprobe SR-XRF, XANES); assay type: cell-based, human; conditions: K562, 10 μM
Method: (§3) The cell lines, K562 and HL-60, were obtained and maintained as previously described. Glutaraldehyde (25% solution), Spurr's low viscosity embedding resin, 3-mm gold Finder grids, and toluidine blue were sourced from Proscitech (Kirwan, Australia). Thin-sectioned cells were prepared for microprobe SRXRF analysis using procedures documented previously. Briefly the cells were treated in cell culture flasks (75 cm^2) with either IMDM (for the control cells, 4 h or 24 h) or PhAs(LHP) (10 μM in IMDM, 4 h or 24 h). The cells were washed with PBS (2 times) using centriguation and the final cell pellet was fixed in gluteraldehyde (1 mL, 2% v/v in PBS) for 2 h at room temperature; and dehydrated in ethanol (30%×2, 50%×2, 70%×2, 80%×2, 90%×2, 95%×2, 100%×4). Infiltration was achieved by rocking the cells in 50% ethanol/50% Spurr's resin overnight and then replacing with 100% Spurr's resin (×2 over 2 days) to ensure the removal of all traces of water. On the final day, the cells were embedded in 100% Spurr's resin, centrifuged (8000 g, 1 h) and cured at 60° C. overnight in a Beem capsule. Thin sections (1 μm) of the cell pellet were cut using an ultramicrotome (Leica EM UC7). The thin-sections were stained with toluidine blue before mounting on silicon nitride membranes.
The gold Finder grids were attached to kinematic mounts designed to fit both the light microscope (Leica DMXRE Epi-fluorescence/visual microscope) and the X-ray microprobe (2-ID-D). […]
Microprobe SR-XRF was performed at beamline 2-ID-D at the Advanced Photon Source, Argonne National Laboratory (Lemont, Ill., USA). […] Fluorescent X-rays were detected using a dwell time of 2.5 s/pt and an energy dispersive Vortex EM (Hitachi High-Technologies Science America, Northridge, Calif.) silicon drift detector. […] Conversion of elemental fluorescence intensities to absolute densities in microgram per square centimetre (μg/cm^2) was performed by comparing X-ray fluorescence intensities with those from thin film standards, NBS-1832 and NBS-1833 (NIST, Gaithersburg, Md., USA).

HL-60 cells [7] = test: Fate of PhAs(LHP) in HL-60 cells (micrographs, microprobe SR-XRF, XANES); assay type: cell-based, human; conditions: HL-60, 10 μM
Method: as §3
The gold Finder grids were attached to kinematic mounts designed to fit both the light microscope (Leica DMXRE Epi-fluorescence/visual microscope) and the X-ray microprobe (2-ID-D). Optical micrographs and XY coordinates were obtained in order to locate suitable cells for analysis.
Microprobe SR-XRF was performed at beamline 2-ID-D at the Advanced Photon Source, Argonne National Laboratory (Lemont, Ill., USA). The 11.9-keV X-ray beam was focused to a spot size of 0.3×0.3 μm^2 using two zone plates. The samples were housed in a helium atmosphere and the distributions of the elements from P (2.1 keV) to As (11.9 keV) were mapped by raster scanning the sample in 0.3 μm steps, with the aid of a XYZ motorised stage. Fluorescent X-rays were detected using a dwell time of 2.5 s/pt and an energy dispersive Vortex EM (Hitachi High-Technologies Science America, Northridge, Calif.) silicon drift detector. Elemental distribution maps were processed using MAPS Version 1.7.3.02 software package (S. Vogt, Advanced Photon Source). Conversion of elemental fluorescence intensities to absolute densities in microgram per square centimetre (μg/cm^2) was performed by comparing X-ray fluorescence intensities with those from thin film standards, NBS-1832 and NBS-1833 (NIST, Gaithersburg, Md., USA).

HL-60 cells [8] = tested on: HL-60 cells
Kasumi-1 cells [9] = tested on: Kasumi-1 cells
HepG2 cells [10] = tested on: HepG2 cells
A549 cells = conditions: 24-h treatment
[11] = tested on: Chinese hamster (CH) solid tumour cells
[12] = tested on: human peripheral blood mononuclear cells (hPBMC)
K562 cells [13] = test: Cellular As uptake, K562 cells; assay type: cell-based, human; conditions: K562, 24-h treatment, 1.5 μM As
Method: as §1, §2

HL-60 cells [14] = test: Cellular As uptake, HL-60 cells; assay type: cell-based, human; conditions: HL-60, 24-h treatment, 1.5 μM As
Method: as §1, §2

KARPAS 45 cells [15] = test: Cellular As uptake, KARPAS 45 cells; assay type: cell-based, human; conditions: KARPAS 45, 24-h treatment, 1.5 μM As
Method: as §1, §2

KARPAS 45 cells [16] = tested on: KARPAS 45 cells

## CC(=O)N[C@H]1CS[As](O)SC[C@@H](C(=O)O)NC(=O)[C@H](CCCNC(=N)N)NC(=O)[C@H](CCCNC(=N)N)NC(=O)[C@H](CC(C)C)NC(=O)[C@H](CCCNC(=N)N)NC(=O)[C@H](Cc2c[nH]cn2)NC(=O)[C@H](Cc2ccc(O)cc2)NC(=O)[C@H](C)NC1=O (stereo partly shown) [HyAs(LHP)]
[1]; 0 h vs 4 h
  stability in Milli-Q water: not stable in Milli-Q water for 4 h; also recorded: lack of stability
K562 cells [2]
  IC50 as percentage of that of ATO: 60%

## CC(=O)N[C@H]1CS[As](C)SC[C@@H](C(=O)O)NC(=O)[C@H](CCCNC(=N)N)NC(=O)[C@H](CCCNC(=N)N)NC(=O)[C@H](CC(C)C)NC(=O)[C@H](CCCNC(=N)N)NC(=O)[C@H](Cc2c[nH]cn2)NC(=O)[C@H](Cc2ccc(O)cc2)NC(=O)[C@H](C)NC1=O (stereo partly shown) [MeAs(LHP)]
[1]; 0 h vs 14 h
  agreement between As K-edge XANES spectra at the two time points: 93%
  stability in Milli-Q water: good stability
[3]
  agreement between As K-edge XANES spectra at the two time points: 82%
  stability in IMDM: reasonable stability
K562 cells [2]
  IC50 as percentage of that of ATO: 37%
  IC50 as percentage of that of HyAs(LHP): 60%

## CC(=O)N[C@H]1CS[As](c2ccccc2)SC[C@@H](C(=O)O)NC(=O)[C@H](CCCNC(=N)N)NC(=O)[C@H](CCCNC(=N)N)NC(=O)[C@H](CC(C)C)NC(=O)[C@H](CCCNC(=N)N)NC(=O)[C@H](Cc2c[nH]cn2)NC(=O)[C@H](Cc2ccc(O)cc2)NC(=O)[C@H](C)NC1=O (stereo partly shown) [PhAs(LHP)]
[1]; 0 h vs 14 h
  agreement between As K-edge XANES spectra at the two time points: ~100%
  stability in Milli-Q water: stable in Milli-Q water for 14 h; also recorded: excellent stability
[3]
  agreement between As K-edge XANES spectra at the two time points: 97%
  stability in IMDM: reasonably stable in IMDM for 24 h; also recorded: good stability
Kasumi-1 cells [4]; 24-h treatment
  cellular As concentration in Kasumi-1 cells, times greater than in HL-60 cells: 1.4 times
  cellular As concentration in Kasumi-1 cells, times higher than in K562 cells: 1.2 times
  cellular As concentration in Kasumi-1 cells, times higher than in KARPAS 45 cells: 4.0 times
HepG2 cells [5]
  cellular As concentration: no detectable cellular As concentrations
hPBMC
  cellular As concentration: no detectable cellular As concentrations
K562 cells [6]; 4 h
  cell morphology (toluidine-blue micrograph): clear evidence of cell stress with fragmentation of the nucleus
K562 cells [6]; 4 h and 24 h
  intracellular As distribution (microprobe SR-XRF): significant As throughout the cell with evidence of accumulation in the cell nucleus
K562 cells [6]; 24 h
  cell morphology (toluidine-blue micrograph): breakdown of the cell membrane and fragmented/dispersed nuclear material
HL-60 cells [7]; 4 h
  cell morphology (toluidine-blue micrograph): cell distress is evident
  intracellular As distribution (microprobe SR-XRF): only small localisations of As
HL-60 cells [7]; 24 h
  cell morphology (toluidine-blue micrograph): high degree of cell degredation with evidence of cell demise
  intracellular As distribution (microprobe SR-XRF): the nucleus clearly contains a greater accumulation of As than the rest of the cell
HL-60 cells [8]
  IC50: 0.5 ± 0.1 µM
  relative toxicity / IC50 versus another compound, in words (comparator in the value): three times greater toxicity toward HL-60 cells than the PAO starting material
Kasumi-1 cells [9]
  IC50: 1.4 ± 0.1 µM
  relative toxicity / IC50 versus another compound, in words (comparator in the value): approximately forty times more toxic than ATO
  times more toxic than PAO: 3.6 times
  times more toxic than PhAs(sLHP): about 460 times
HepG2 cells [10]
  IC50: 978 ± 11 µM
  selectivity: IC50 in HepG2 cells, times greater than in K562 and HL-60 cells: ~2000 times
A549 cells
  selectivity: IC50 in A549 cells, times greater than in K562 and HL-60 cells: 470 times
A549 cells; A549 cells, MTT
  IC50: 234 ± 5 µM
[11]
  IC50: 770 ± 12 µM
  selectivity: IC50 in CH solid tumour cells, times greater than in K562 and HL-60 cells: approximately 1500 times
[12]
  IC50: 495 ± 6 µM
  selectivity: IC50 in hPBMC, times greater than in K562 and HL-60 cells: approximately 1000 times
  selectivity: IC50 in hPBMC, times greater than in KARPAS 45 cells: approximately 64 times

## CC(=O)N[C@H]1CS[As](c2ccccc2)SC[C@@H](C(=O)O)NC(=O)[C@H](CCCNC(=N)N)NC(=O)[C@H](CC(C)C)NC(=O)[C@H](Cc2ccc(O)cc2)NC(=O)[C@H](CCCNC(=N)N)NC(=O)[C@H](Cc2c[nH]cn2)NC(=O)[C@H](CCCNC(=N)N)NC(=O)[C@H](C)NC1=O (stereo partly shown) [PhAs(sLHP)]
K562 cells [13]
  cellular As concentration: no detectable As uptake
HL-60 cells [14]
  cellular As concentration: no detectable As uptake
Kasumi-1 cells [4]; Kasumi-1, 24-h treatment
  cellular As concentration: no detectable As uptake
KARPAS 45 cells [15]
  cellular As concentration: no detectable As uptake
HepG2 cells [5]
  cellular As concentration: no detectable As uptake
hPBMC
  cellular As concentration: no detectable As uptake
K562 cells [2]
  IC50: 790 ± 30 µM
  times less toxic than PhAs(LHP): 1600 times
HL-60 cells [8]
  IC50: 205 ± 4 µM
KARPAS 45 cells [16]
  times less toxic than PhAs(LHP): 32 times
HepG2 cells [10]
  IC50: 960 ± 10 µM
[12]
  IC50: 665 ± 8 µM

## arsenic trioxide [ATO]
Kasumi-1 cells [4]; 24-h treatment
  cellular As concentration in Kasumi-1 cells, times greater than in HepG2 cells: 5.5 times
K562 cells [2]
  IC50: 9.7 ± 0.2 µM
  relative toxicity / IC50 versus another compound, in words (comparator in the value): approximately half that of arsenite
HL-60 cells [8]
  IC50: 7 ± 0.1 µM
  relative toxicity / IC50 versus another compound, in words (comparator in the value): a little less than half that obtained for arsenite
Kasumi-1 cells [9]
  IC50: 61 ± 1 µM
KARPAS 45 cells [16]
  IC50: 15.1 µM and 15 µM
  IC50 as percentage of the value for arsenite: 23%
HepG2 cells [10]
  IC50: 52 ± 3 µM
  times more toxic than arsenite: 1.7 times
[11]
  IC50: 23.3 ± 0.9 µM
[12]
  IC50: 81.7 µM and 82 µM
  relative toxicity / IC50 versus another compound, in words (comparator in the value): approximately twice that obtained for arsenite

From US11819489B2 (priority 2017, dated 2023)
